Laboratory results published in ChEMBL document CHEMBL1201862, “PubChem BioAssay data set” (2004).
The source made the active and inactive calls.

Key:
Nonstructural protein 1 = Nonstructural protein 1 (Influenza A virus, UniProt Q194T2); format: functional, Influenza A virus (A/California/07/2009(H1N1))
HeLa = assay: HeLa cell cytotoxicity, dose response, cytotoxicity control, 24 h, cherry-picked samples (AID 504726); format: functional, cell-based; conditions: Homo sapiens;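 further: potency for cytotoxicity as loss of luminescence signal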
Caspase-6 = Caspase-6 (Homo sapiens, UniProt P55212); assay: human caspase-6 inhibitors, dose response, biochemical, VEID-R110 fluorescence, cherry-pick (AID 720632)
Sequence of Caspase-6 (P55212 24-179 limits assumed): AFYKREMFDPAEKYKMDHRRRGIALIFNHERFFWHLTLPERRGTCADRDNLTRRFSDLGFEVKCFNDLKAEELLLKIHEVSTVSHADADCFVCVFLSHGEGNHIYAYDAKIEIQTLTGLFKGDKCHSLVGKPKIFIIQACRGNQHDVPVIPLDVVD
Sequence of Caspase-6 (P55212 194-293 limits assumed): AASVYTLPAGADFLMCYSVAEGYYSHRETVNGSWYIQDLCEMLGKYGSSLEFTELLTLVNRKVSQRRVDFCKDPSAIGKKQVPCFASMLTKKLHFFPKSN

ORF 73 = biological target: T1, ORF 73 (Human herpesvirus 8, UniProt O40947); assay: inhibitors of C-LANA binding to LBS DNA, dose response, biochemical, fluorescence polarization, cherry-picked samples (AID 504725); parameters: species or system Human gammaherpesvirus 8;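 further: fluorescence polarization of a labeled DNA duplex reporting LANA DNA binding; potency is for inhibitors that block LANA binding to the DNA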
T1 sequence (O40947 whole entry): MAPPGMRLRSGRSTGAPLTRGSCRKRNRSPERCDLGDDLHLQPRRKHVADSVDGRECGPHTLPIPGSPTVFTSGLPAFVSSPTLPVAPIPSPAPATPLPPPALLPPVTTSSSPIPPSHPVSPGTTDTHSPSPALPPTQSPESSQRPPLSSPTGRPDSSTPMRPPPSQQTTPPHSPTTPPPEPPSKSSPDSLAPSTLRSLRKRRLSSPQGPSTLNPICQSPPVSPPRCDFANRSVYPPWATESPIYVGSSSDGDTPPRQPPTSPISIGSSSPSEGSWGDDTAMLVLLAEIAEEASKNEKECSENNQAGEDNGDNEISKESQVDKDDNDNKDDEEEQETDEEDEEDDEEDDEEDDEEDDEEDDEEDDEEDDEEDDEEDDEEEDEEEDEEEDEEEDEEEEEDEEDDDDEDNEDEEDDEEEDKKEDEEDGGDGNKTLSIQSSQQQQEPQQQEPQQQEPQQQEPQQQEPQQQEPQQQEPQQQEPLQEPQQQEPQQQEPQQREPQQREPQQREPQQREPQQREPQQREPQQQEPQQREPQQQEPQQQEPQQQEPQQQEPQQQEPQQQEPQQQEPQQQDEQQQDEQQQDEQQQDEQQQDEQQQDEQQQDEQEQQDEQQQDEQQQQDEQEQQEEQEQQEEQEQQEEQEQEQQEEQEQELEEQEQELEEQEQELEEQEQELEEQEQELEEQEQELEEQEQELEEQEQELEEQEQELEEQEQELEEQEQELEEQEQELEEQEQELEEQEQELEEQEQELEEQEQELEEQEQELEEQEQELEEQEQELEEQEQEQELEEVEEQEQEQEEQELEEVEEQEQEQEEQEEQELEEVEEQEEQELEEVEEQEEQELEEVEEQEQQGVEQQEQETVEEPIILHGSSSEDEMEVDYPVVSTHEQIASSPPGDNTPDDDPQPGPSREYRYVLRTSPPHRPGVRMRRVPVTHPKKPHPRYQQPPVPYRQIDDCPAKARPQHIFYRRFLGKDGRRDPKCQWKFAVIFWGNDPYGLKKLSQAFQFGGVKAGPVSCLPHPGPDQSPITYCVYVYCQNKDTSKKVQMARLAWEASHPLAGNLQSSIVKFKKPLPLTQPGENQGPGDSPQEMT

[1] = biological target: T2, Carboxy-terminal domain RNA polymerase II polypeptide A small phosphatase 1 (Homo sapiens, UniProt Q9GZU7); assay: inhibitors of CTDSP1, concentration-response testing, biochemical assay, absorbance-based, actives from ultra-high-throughput screening (AID 540297); format: functional
T2 sequence (Q9GZU7 whole entry): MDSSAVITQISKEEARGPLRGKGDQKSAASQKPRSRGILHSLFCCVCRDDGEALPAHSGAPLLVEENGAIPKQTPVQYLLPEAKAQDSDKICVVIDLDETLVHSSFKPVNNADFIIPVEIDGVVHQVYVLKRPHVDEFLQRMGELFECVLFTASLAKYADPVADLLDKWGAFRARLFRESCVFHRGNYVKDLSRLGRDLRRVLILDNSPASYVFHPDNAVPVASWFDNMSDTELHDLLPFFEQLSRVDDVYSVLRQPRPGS

Genome polyprotein = Genome polyprotein (dengue virus type 2, UniProt P29990); assay: Dengue-2 NS5 methyltransferase inhibitors, primary screen, biochemical, confirmation dose response (AID 588689); format: functional
Sequence of Genome polyprotein (P29990 2492-3391 limits assumed): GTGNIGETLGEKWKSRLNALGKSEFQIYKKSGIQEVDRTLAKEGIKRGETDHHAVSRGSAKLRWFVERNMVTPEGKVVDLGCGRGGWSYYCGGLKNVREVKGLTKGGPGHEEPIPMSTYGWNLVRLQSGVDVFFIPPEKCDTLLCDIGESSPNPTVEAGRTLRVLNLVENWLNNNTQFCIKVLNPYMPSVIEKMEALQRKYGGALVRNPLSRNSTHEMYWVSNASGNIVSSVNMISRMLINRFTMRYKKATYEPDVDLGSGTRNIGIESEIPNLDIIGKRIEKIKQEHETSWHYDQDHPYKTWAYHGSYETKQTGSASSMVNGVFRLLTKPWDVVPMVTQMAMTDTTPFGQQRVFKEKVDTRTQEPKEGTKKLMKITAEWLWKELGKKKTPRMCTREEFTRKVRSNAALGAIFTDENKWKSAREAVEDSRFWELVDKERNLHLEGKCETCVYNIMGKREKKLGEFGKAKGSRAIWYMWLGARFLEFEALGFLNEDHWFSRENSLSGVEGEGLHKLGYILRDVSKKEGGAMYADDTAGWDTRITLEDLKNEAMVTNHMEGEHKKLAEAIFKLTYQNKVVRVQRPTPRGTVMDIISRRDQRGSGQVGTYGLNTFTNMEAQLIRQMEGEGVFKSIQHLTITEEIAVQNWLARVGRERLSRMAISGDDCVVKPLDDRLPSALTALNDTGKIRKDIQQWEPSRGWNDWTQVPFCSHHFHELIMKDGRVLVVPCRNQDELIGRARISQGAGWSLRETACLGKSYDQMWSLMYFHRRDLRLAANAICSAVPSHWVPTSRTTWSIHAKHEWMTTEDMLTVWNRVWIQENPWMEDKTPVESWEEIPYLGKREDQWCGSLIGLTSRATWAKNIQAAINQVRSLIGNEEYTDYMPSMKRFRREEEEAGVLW

[2] = HeLa cell cytotoxicity, dose response, cytotoxicity control for MgcRacGAP inhibitor project (AID 624300); format: functional
[3] = biological target: Intestinal-type alkaline phosphatase (Homo sapiens, UniProt P09923); assay: Dose Response confirmation of uHTS hits from a small molecule inhibitors of human intestinal alkaline phosphatase via a luminescent assay. [Related pubchem assays (depositor defined):AID2544, AID2574]; format: functional
Sequence of Intestinal-type alkaline phosphatase (P09923 whole entry): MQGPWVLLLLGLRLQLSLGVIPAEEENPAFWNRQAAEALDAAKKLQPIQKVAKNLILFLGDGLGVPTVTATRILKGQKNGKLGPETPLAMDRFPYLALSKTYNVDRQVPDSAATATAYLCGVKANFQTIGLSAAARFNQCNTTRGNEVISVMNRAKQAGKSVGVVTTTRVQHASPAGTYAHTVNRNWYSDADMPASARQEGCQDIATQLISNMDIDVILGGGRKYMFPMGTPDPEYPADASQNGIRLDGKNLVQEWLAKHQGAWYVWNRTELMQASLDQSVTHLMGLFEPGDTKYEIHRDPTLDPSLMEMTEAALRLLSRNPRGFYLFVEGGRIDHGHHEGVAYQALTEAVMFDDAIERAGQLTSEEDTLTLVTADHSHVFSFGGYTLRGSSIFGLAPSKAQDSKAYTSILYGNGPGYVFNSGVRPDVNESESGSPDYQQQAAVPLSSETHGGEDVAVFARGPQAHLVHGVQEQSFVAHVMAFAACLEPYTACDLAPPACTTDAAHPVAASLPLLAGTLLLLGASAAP

[4] = cytotoxicity in HEK-293T cells, dose response, cytotoxicity control for BCR NF-kB inhibitor project, luminescence, B-cell screen hits (AID 489021); format: functional, cell-based;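 further: HEK-293T cells carrying an NF-kB luciferase reporter; cells exposed to compound for about 14 hours before viability readout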
[5] = inhibitors of clade B AD8 Env fusion, dose response, cell-based, cherry-pick (AID 652062); format: functional;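 further: luciferase signal from cell-cell fusion driven by HIV-1 clade B AD8 Env; potency is for inhibitors of fusion seen as a drop in luminescence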
[6] = Luminescence Cell-Based Dose Response HTS to Identify Inhibitors of 5'UTR Stem-Loop Driven Prion Protein mRNA Translation in H4 Neuroglioblastoma Cells. [Related pubchem assays: 1827 (Project Summary), 1813 (Primary HTS)]; format: functional
[7] = off-target signal loss in HeLa-CEM21 co-culture – HeLa F-luc CTL cells, cherry-picked, counter-screen for HIV-1 Env fusion inhibitor project, dose response (AID 652040); format: functional, cell-based;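 further: potency for signal decrease marking cytotoxic or nonspecific inhibition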
[8] = biological target: Glucose-6-phosphate 1-dehydrogenase (Homo sapiens, UniProt P11413); assay: human G6PD enzyme inhibitors, dose response, selectivity assay for P. falciparum G6PD inhibitor project, biochemical, fluorescence (AID 504792); format: functional
Sequence of Glucose-6-phosphate 1-dehydrogenase (P11413 whole entry, the tested form may be a part): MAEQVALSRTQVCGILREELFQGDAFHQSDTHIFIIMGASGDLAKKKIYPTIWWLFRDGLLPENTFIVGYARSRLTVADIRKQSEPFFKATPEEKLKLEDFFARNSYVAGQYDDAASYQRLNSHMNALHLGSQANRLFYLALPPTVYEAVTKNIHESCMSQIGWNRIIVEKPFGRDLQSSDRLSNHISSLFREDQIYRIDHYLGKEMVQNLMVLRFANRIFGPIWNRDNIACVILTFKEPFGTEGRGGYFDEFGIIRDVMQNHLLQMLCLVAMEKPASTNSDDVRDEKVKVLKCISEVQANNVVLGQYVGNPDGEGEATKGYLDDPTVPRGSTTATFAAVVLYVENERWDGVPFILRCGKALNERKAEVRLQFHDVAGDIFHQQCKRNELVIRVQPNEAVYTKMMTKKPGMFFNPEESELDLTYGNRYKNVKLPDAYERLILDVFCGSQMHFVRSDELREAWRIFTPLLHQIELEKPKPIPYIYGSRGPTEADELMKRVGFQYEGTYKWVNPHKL

[9] = ZM109 Env clade C HIV-1 fusion inhibitors, dose response, HeLa effector, CEM target cells, luciferase, cherry-pick (AID 652058); format: functional, cell-based
[10] = inhibitors of HIV Env-driven cell fusion, dose response, cherry-pick (AID 652057); format: functional, cell-based
[11] = inhibitors of SNCA 5'UTR-driven reporter translation, confirmation, H4 neuroglioma cells, luminescence (AID 1988); format: functional, cell-based
[12] = biological target: Melanin-concentrating hormone receptor 1 (Homo sapiens, UniProt Q99705); assay: Late-stage fluorescence-based counterscreen for antagonists of the G-protein coupled receptor 7 (GPR7): cell-based dose response assay to identify antagonists of the melanin-concentrating hormone receptor 1 (MCHR1). [Related pubchem assays (depositor defined):AID1861, AID1880, AID1952, AID2148, AID2251, AID2257, AID485339]; format: functional;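 further: stimulated with 30 nM MCH peptide agonist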
Sequence of Melanin-concentrating hormone receptor 1 (Q99705 whole entry): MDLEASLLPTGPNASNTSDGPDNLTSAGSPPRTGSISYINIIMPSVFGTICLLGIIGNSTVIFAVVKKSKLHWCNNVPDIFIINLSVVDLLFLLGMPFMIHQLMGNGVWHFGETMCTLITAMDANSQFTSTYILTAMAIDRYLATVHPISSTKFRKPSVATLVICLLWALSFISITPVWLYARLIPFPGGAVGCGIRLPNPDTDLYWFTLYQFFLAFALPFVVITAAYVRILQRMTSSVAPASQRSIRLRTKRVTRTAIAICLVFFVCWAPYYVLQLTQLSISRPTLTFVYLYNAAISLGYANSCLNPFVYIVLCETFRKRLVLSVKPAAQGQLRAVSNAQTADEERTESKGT

[13] = biological target: C-C chemokine receptor type 6 (Homo sapiens, UniProt P51684); assay: CCR6 receptor antagonists, dose response, cell-based, luminescent beta-arrestin readout (AID 504728); format: functional
Sequence of C-C chemokine receptor type 6 (P51684 whole entry): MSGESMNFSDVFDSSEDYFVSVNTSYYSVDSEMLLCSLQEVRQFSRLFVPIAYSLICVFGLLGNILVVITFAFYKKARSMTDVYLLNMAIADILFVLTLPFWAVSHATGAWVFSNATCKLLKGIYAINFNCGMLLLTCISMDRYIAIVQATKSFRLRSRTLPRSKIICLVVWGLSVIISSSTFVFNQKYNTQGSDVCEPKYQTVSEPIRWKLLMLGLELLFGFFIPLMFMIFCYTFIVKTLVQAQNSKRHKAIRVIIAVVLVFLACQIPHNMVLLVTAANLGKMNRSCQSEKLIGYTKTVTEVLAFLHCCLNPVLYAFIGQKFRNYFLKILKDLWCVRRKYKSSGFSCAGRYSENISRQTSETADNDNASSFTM

Beta-galactosidase = Beta-galactosidase (Escherichia coli, UniProt Q8VNN2); assay: beta-galactosidase enzyme inhibitors and activators, dose response, artefact control for CCR6 antagonist project, biochemical, E. coli enzyme, set 3 (AID 504712); format: functional
Sequence of Beta-galactosidase (Q8VNN2 whole entry): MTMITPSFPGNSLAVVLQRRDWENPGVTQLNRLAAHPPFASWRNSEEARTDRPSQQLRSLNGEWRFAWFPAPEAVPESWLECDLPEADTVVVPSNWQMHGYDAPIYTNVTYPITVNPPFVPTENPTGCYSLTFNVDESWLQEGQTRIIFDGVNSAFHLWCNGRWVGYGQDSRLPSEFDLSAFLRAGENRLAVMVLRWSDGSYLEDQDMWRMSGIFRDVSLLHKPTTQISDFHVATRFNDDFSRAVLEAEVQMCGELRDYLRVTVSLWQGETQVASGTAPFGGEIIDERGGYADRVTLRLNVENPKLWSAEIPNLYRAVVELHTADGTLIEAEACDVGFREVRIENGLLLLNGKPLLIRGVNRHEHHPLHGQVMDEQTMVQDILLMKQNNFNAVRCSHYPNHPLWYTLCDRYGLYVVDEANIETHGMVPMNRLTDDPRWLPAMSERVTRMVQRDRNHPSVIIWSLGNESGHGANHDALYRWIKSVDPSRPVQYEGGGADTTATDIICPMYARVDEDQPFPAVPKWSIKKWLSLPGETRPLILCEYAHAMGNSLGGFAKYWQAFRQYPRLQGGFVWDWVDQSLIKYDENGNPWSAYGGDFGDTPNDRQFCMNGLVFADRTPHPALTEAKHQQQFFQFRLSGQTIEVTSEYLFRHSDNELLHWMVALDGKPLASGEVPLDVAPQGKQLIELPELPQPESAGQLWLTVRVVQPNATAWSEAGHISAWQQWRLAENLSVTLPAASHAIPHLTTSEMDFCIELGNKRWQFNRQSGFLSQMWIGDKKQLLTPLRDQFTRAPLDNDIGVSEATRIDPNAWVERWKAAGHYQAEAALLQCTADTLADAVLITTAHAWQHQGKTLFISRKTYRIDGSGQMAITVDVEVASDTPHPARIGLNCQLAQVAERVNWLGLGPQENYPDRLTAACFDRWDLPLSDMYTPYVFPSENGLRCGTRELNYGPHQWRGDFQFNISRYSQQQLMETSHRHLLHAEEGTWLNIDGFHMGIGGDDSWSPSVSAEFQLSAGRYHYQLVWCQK

Vero = assay: cells; format: functional; conditions: Chlorocebus sabaeus

Sequence of Nonstructural protein 1 (Q194T2 whole entry): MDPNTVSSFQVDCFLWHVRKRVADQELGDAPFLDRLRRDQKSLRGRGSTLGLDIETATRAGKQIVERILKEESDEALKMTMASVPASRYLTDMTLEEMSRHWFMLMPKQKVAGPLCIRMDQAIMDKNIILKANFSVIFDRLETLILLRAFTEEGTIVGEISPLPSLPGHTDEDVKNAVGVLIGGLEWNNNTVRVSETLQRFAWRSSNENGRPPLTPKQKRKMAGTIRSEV

O=C(O)Cc1ccc(N=Nc2c(O)c(C(=O)O)cc3ccccc23)cc1
IC50 (Nonstructural protein 1): 46 µM (active)
AC50 (HeLa): 303 µM (active)
AC50 (Caspase-6): 7.16 µM (active)
AC50 (ORF 73): 33.6 µM (active)
IC50 [1]: 3.6 µM (active)
IC50 (Genome polyprotein): 68.1 µM (active)

CC(=O)Nc1cccc(-c2csc(Nc3ccccn3)n2)c1
CC50 [2]: 94.2 µM (active)
IC50 [3]: > 100 µM (inactive)

OCCN1CCN(C(=S)c2ccc(-c3ccccc3)cc2)CC1
IC50 [4]: > 80 µM (inactive)
AC50 [5]: 1.64 µM (active)
EC50 [6]: 12.1 µM (active)
AC50 [7]: 5.39 µM (active)
IC50 [8]: > 80 µM (inactive)
AC50 [9]: 3.74 µM (active)
AC50 [10]: 4.04 µM (active)
EC50 [11]: 9.34 µM (active)

CCOc1ccc(Oc2c(Cl)cnn(-c3ccc(C)cc3)c2=O)cc1
IC50 [12]: 11 µM (inactive)

COC(=O)c1ccccc1/N=C1\C=C(NS(=O)(=O)c2cccs2)c2ccccc2C1=O
IC50 (Nonstructural protein 1): 4.03 µM (active)
IC50 [13]: > 66.6 µM (inactive)
IC50 [8]: > 80 µM (inactive)
IC50 (Beta-galactosidase): > 66.6 µM (inactive)
CC50 (Vero): 13.6 µM (active)
